Assay results: publication PMC10945556, “Design, Synthesis, and Antifungal Activity of 3-Substituted-2(5H)-Oxaboroles” (ACS Medicinal Chemistry Letters, 2024)
Values after ≈ are worked out from the molar mass of the structure shown.

Tests used:
P. chrysogenum = test: MIC, dose-dependent solid media assay; type: cell-based, Penicillium chrysogenum; settings: Penicillium chrysogenum
P. aeruginosa = test: MIC, microbroth dilution; type: cell-based, Pseudomonas aeruginosa; settings: Pseudomonas aeruginosa
B. cereus = test: MIC, microbroth dilution; type: cell-based, Bacillus cereus; settings: Bacillus cereus
S. cerevisiae = test: MIC, microbroth dilution; type: cell-based, Saccharomyces cerevisiae; settings: Saccharomyces cerevisiae
E. coli [1] = test: MIC, microbroth dilution; type: cell-based, Escherichia coli; settings: for MIC: Escherichia coli
T. mentagrophytes = test: MIC, dose-dependent solid media assay; type: cell-based, Trichophyton mentagrophytes; settings: Trichophyton mentagrophytes
A. flavus = test: MIC, dose-dependent solid media assay; type: cell-based, Aspergillus flavus; settings: Aspergillus flavus
C. albicans = test: MIC, microbroth dilution; type: cell-based, Candida albicans; settings: Candida albicans
E. coli [2] = test: Growth inhibition screen in liquid medium; type: cell-based, Escherichia coli; settings: screen at 50 and 12.5 μg/mL
Excerpt: These included four bacterial pathogens [Bacillus cereus (Gram-positive), Methicillin resistant Staphylococcus aureus (Gram-positive), Pseudomonas aeruginosa (Gram-negative), and Escherichia coli (Gram-negative)], a fungal pathogen (Candida albicans), and a yeast (Saccharomyces cerevisiae). […] Commercially available tavaborole, cycloheximide, and nystatin were also screened as benchmarks. […] In addition, the 3-substituted oxaboroles were screened in a dose-dependent manner on solid media against three spore-forming fungal pathogens: Trichophyton mentagrophytes, Penicillium chrysogenum, and Aspergillus flavus (Figures 2B and S152–S192). The compounds could not be screened for growth inhibition in liquid media against these pathogens due to clumping of the mycelia, which impeded the absorbance readings.

[3] = tested on: Methicillin resistant Staphylococcus aureus; test: MIC, microbroth dilution; type: cell-based; settings: Staphylococcus aureus, S. aureus (MRSA)
[4] = tested on: rat myoblast cells (H9c2); test: Cell viability assay against H9c2 cell line; type: cell-based; settings: concentrations up to 100 μM, 24 h
Protocol: (§1) In general, very little growth inhibition was observed against either Gram-positive or Gram-negative bacterial pathogens. […] The SAR for the antibacterial is dissimilar to that observed for the antifungal properties.
(§2) Figure 3 (A) Cell viability assay against H9c2 cell line at 100 μM for 24 h (normalized to PBS no treatment), (B) Hemolytic assay at 50 and 100 μM for 1 h (normalized to triton X-100 positive control). Error bars in both graphs represent standard error of mean (SEM) of replicates (n = 3).

Hemolytic assay = type: cell-based; settings: 50 and 100 μM for 1 h
Protocol: as §1, §2

Row | Compound | MIC (P. chrysogenum) | MIC (P. chrysogenum; value in parentheses) | MIC (P. aeruginosa) | MIC (P. aeruginosa; value in parentheses) | MIC (B. cereus) | MIC (B. cereus; value in parentheses) | MIC (S. cerevisiae) | MIC (S. cerevisiae; value in parentheses) | MIC (E. coli [1]) | MIC (E. coli [1]; value in parentheses) | MIC (T. mentagrophytes) | MIC (T. mentagrophytes; value in parentheses) | MIC (A. flavus) | MIC (A. flavus; value in parentheses) | MIC (C. albicans) | MIC (C. albicans; value in parentheses) | MIC [3] | MIC ([3]; value in parentheses) | cytotoxic effects against rat myoblast cells (H9c2) [4] | hemolytic activity (Hemolytic assay) | further results
1 | OB1OCC=C1c1ccc(Cl)cc1 [Compound 6e] | 12.5 µg/mL | 64.4 µM | > 50 µg/mL | > 258 µM | > 50 µg/mL | > 258 µM | 5.2 ± 1 µg/mL | 26.8 µM | 20 to 50 µg/mL | 129 µM | 50 µg/mL | 258 µM | 50 µg/mL | 258 µM | > 50 µg/mL | > 258 µM | > 50 µg/mL | > 258 µM | – | – | MIC EC (E. coli [1]): 25 ± 0 µg/mL (≈ 129 µM); growth inhibition of E. coli (E. coli [2]): inhibited the growth
2 | OB1OCC=C1c1ccc2ccccc2c1 [Compound 6q] | 12.5 µg/mL | 59.5 µM | > 50 µg/mL | > 238 µM | > 50 µg/mL | > 238 µM | > 50 µg/mL | > 238 µM | > 50 µg/mL | > 238 µM | > 50 µg/mL | > 238 µM | > 50 µg/mL | > 238 µM | > 50 µg/mL | > 238 µM | > 50 µg/mL | > 238 µM | none | none possessed hemolytic activity | –
3 | Cc1cccc(C2=CCOB2O)c1 [Compound 6u] | 25 µg/mL | 144 µM | > 50 µg/mL | > 287 µM | > 50 µg/mL | > 287 µM | 21 ± 4 µg/mL | 121 µM | > 50 µg/mL | > 287 µM | 42 ± 8 µg/mL | 241 µM | 33 ± 8 µg/mL | 190 µM | > 50 µg/mL | > 287 µM | > 50 µg/mL | > 287 µM | none | none possessed hemolytic activity | –
4 | OB1OCC=C1c1cccs1 [Compound 6s] | 50 µg/mL | 301 µM | > 50 µg/mL | > 301 µM | > 50 µg/mL | > 301 µM | 10 ± 2 µg/mL | 60.2 µM | – | 253 µM | > 50 µg/mL | > 301 µM | > 50 µg/mL | > 301 µM | > 50 µg/mL | > 301 µM | > 50 µg/mL | > 301 µM | – | – | growth inhibition of E. coli (E. coli [2]): inhibited the growth
5 | OB1OCC=C1c1ccc(F)cc1 [Compound 6b] | 25 µg/mL | 140 µM | > 50 µg/mL | > 281 µM | > 50 µg/mL | > 281 µM | 10.4 ± 2 µg/mL | 58.4 µM | – | 236 µM | > 50 µg/mL | > 281 µM | > 50 µg/mL | > 281 µM | > 50 µg/mL | > 281 µM | > 50 µg/mL | > 281 µM | – | – | growth inhibition of E. coli (E. coli [2]): inhibited the growth
6 | CCCc1ccc(C2=CCOB2O)cc1 [Compound 6x] | 12.5 µg/mL | 61.9 µM | > 50 µg/mL | > 248 µM | > 50 µg/mL | > 248 µM | 10.4 ± 2 µg/mL | 51.5 µM | 20 to 50 µg/mL | 104 µM | 50 µg/mL | 248 µM | > 50 µg/mL | > 248 µM | > 50 µg/mL | > 248 µM | > 50 µg/mL | > 248 µM | none | none possessed hemolytic activity | MIC EC (E. coli [1]): 21 ± 4 µg/mL (≈ 104 µM); growth inhibition of E. coli (E. coli [2]): inhibited the growth
7 | OB1OCC=C1c1ccc2occc2c1 [Compound 6r] | 25 µg/mL | 125 µM | > 50 µg/mL | > 250 µM | > 50 µg/mL | > 250 µM | 5.2 ± 1 µg/mL | 26 µM | > 50 µg/mL | > 250 µM | 50 µg/mL | 250 µM | 50 µg/mL | 250 µM | > 50 µg/mL | > 250 µM | > 50 µg/mL | > 250 µM | none | none possessed hemolytic activity | –
8 | CC(C)(C)c1ccc(C2=CCOB2O)cc1 [Compound 6w] | 12.5 µg/mL | 57.9 µM | > 50 µg/mL | > 232 µM | > 50 µg/mL | > 232 µM | > 50 µg/mL | > 232 µM | > 50 µg/mL | > 232 µM | > 50 µg/mL | > 232 µM | > 50 µg/mL | > 232 µM | > 50 µg/mL | > 232 µM | > 50 µg/mL | > 232 µM | none | none possessed hemolytic activity | –
9 | Cc1ccc(C2=CCOB2O)cc1 [Compound 6t] | 21 ± 4 µg/mL | 121 µM | > 50 µg/mL | > 287 µM | > 50 µg/mL | > 287 µM | 10.4 ± 2 µg/mL | 59.8 µM | – | 241 µM | > 50 µg/mL | > 287 µM | > 50 µg/mL | > 287 µM | > 50 µg/mL | > 287 µM | > 50 µg/mL | > 287 µM | none | none possessed hemolytic activity | growth inhibition of E. coli (E. coli [2]): inhibited the growth
10 | OB1OCC=C1c1ccc(Br)cc1 [Compound 6h] | 12.5 µg/mL | 52.5 µM | > 50 µg/mL | > 210 µM | > 50 µg/mL | > 210 µM | 12.5 µg/mL | 52.5 µM | 20 to 50 µg/mL | 88.2 µM | 33 ± 8 µg/mL | 139 µM | 33 ± 8 µg/mL | 139 µM | > 50 µg/mL | > 210 µM | > 50 µg/mL | > 210 µM | none | none possessed hemolytic activity | MIC EC (E. coli [1]): 21 ± 4 µg/mL (≈ 87.9 µM); growth inhibition of E. coli (E. coli [2]): inhibited the growth
11 | COc1ccc(C2=CCOB2O)cc1 [Compound 6n] | > 50 µg/mL | > 263 µM | > 50 µg/mL | > 263 µM | > 50 µg/mL | > 263 µM | > 50 µg/mL | > 263 µM | > 50 µg/mL | > 263 µM | > 50 µg/mL | > 263 µM | > 50 µg/mL | > 263 µM | > 50 µg/mL | > 263 µM | > 50 µg/mL | > 263 µM | – | – | –
12 | OB1OCC=C1c1cccc(Cl)c1 [Compound 6f] | 12.5 µg/mL | 64.4 µM | > 50 µg/mL | > 258 µM | > 50 µg/mL | > 258 µM | 21 ± 4 µg/mL | 108 µM | > 50 µg/mL | > 258 µM | 25 µg/mL | 129 µM | 25 µg/mL | 129 µM | > 50 µg/mL | > 258 µM | > 50 µg/mL | > 258 µM | – | – | –
13 | OB1OCC=C1c1cccc(Br)c1 [Compound 6i] | 10.4 ± 2 µg/mL | 43.7 µM | > 50 µg/mL | > 210 µM | > 50 µg/mL | > 210 µM | 50 µg/mL | 210 µM | > 50 µg/mL | > 210 µM | 25 µg/mL | 105 µM | 25 µg/mL | 105 µM | > 50 µg/mL | > 210 µM | > 50 µg/mL | > 210 µM | none | none possessed hemolytic activity | –
14 | Cc1cc(F)cc(C2=CCOB2O)c1 [Compound 6k] | 12.5 µg/mL | 65.1 µM | > 50 µg/mL | > 260 µM | > 50 µg/mL | > 260 µM | 12.5 µg/mL | 65.1 µM | – | > 260 µM | 42 ± 8 µg/mL | 219 µM | 42 ± 8 µg/mL | 219 µM | > 50 µg/mL | > 260 µM | > 50 µg/mL | > 260 µM | – | – | –
